Data: BigSolDB 2.1

For `CCCCCCCCCCCC(=O)O`, the solubility (mole fraction) (in 1-bromopropane, 280.6 K) was 0.0756, the solubility (mole fraction) (in 1-bromopropane, 283.8 K) was 0.0997 and the solubility (mole fraction) (in 1-bromopropane, 287.8 K) was 0.15. For the same molecule, the solubility (mole fraction) (in 1-bromopropane, 289.9 K) was 0.185, the solubility (mole fraction) (in 1-bromopropane, 293.1 K) was 0.239 and the solubility (mole fraction) (in 1-bromopropane, 295.2 K) was 0.275. The solubility (mole fraction) (in 1-bromopropane, 298.8 K) was 0.34, the solubility (mole fraction) (in 1-bromopropane, 301.4 K) was 0.404 and the solubility (mole fraction) (in 1-bromopropane, 304.3 K) was 0.473. For the same molecule, the solubility (mole fraction) (in 1-bromopropane, 305.3 K) was 0.528, the solubility (mole fraction) (in 1-bromopropane, 307.3 K) was 0.573 and the solubility (mole fraction) (in 1-bromopropane, 309.3 K) was 0.645. The solubility (mole fraction) (in 1-bromopropane, 310.5 K) was 0.709, the solubility (mole fraction) (in 1-bromopropane, 312.5 K) was 0.775 and the solubility (mole fraction) (in 1-bromopropane, 313.8 K) was 0.859. The solubility (mole fraction) (in acetone, 286.6 K) was 0.0794, the solubility (mole fraction) (in acetone, 290.1 K) was 0.107 and the solubility (mole fraction) (in acetone, 293.1 K) was 0.146. The solubility (mole fraction) (in acetone, 293.3 K) was 0.146, the solubility (mole fraction) (in acetone, 298 K) was 0.224 and the solubility (mole fraction) (in acetone, 299.9 K) was 0.283. It also gave a solubility (mole fraction) (in acetone, 301.9 K) of 0.34, a solubility (mole fraction) (in acetone, 303.4 K) of 0.389 and a solubility (mole fraction) (in acetone, 305.1 K) of 0.449. For the same molecule, the solubility (mole fraction) (in acetone, 306.7 K) was 0.512, the solubility (mole fraction) (in acetone, 308.1 K) was 0.568 and the solubility (mole fraction) (in acetone, 310.9 K) was 0.678. It also gave a solubility (mole fraction) (in acetone, 312 K) of 0.735, a solubility (mole fraction) (in acetone, 313 K) of 0.795 and a solubility (mole fraction) (in acetone, 314.4 K) of 0.857. For the same molecule, the solubility (mole fraction) (in acetone, 315.2 K) was 0.895, the solubility (mole fraction) (in isopropanol, 279.2 K) was 0.0797 and the solubility (mole fraction) (in isopropanol, 282.7 K) was 0.104. The solubility (mole fraction) (in isopropanol, 285.9 K) was 0.13, the solubility (mole fraction) (in isopropanol, 289.1 K) was 0.164 and the solubility (mole fraction) (in isopropanol, 293.1 K) was 0.22. For the same molecule, the solubility (mole fraction) (in isopropanol, 297.1 K) was 0.283, the solubility (mole fraction) (in isopropanol, 301 K) was 0.361 and the solubility (mole fraction) (in isopropanol, 303 K) was 0.409. The solubility (mole fraction) (in isopropanol, 304.4 K) was 0.458, the solubility (mole fraction) (in isopropanol, 306.1 K) was 0.513 and the solubility (mole fraction) (in isopropanol, 308.1 K) was 0.568. For the same molecule, the solubility (mole fraction) (in isopropanol, 309.8 K) was 0.648, the solubility (mole fraction) (in isopropanol, 311.2 K) was 0.712 and the solubility (mole fraction) (in isopropanol, 312.6 K) was 0.777. The solubility (mole fraction) (in isopropanol, 314.1 K) was 0.842, the solubility (mole fraction) (in isopropanol, 314.9 K) was 0.896 and the solubility (mole fraction) (in n-hexane, 279.9 K) was 0.0292. For the same molecule, the solubility (mole fraction) (in n-hexane, 282.5 K) was 0.0408, the solubility (mole fraction) (in n-hexane, 283.6 K) was 0.0502 and the solubility (mole fraction) (in n-hexane, 286.9 K) was 0.0736. It also gave a solubility (mole fraction) (in n-hexane, 289.7 K) of 0.108, a solubility (mole fraction) (in n-hexane, 291.7 K) of 0.134 and a solubility (mole fraction) (in n-hexane, 293.9 K) of 0.171. It also gave a solubility (mole fraction) (in n-hexane, 296.4 K) of 0.223, a solubility (mole fraction) (in n-hexane, 297.5 K) of 0.252 and a solubility (mole fraction) (in n-hexane, 300.1 K) of 0.322. The solubility (mole fraction) (in n-hexane, 301.8 K) was 0.38, the solubility (mole fraction) (in n-hexane, 303.8 K) was 0.442 and the solubility (mole fraction) (in n-hexane, 305.9 K) was 0.519. It also gave a solubility (mole fraction) (in n-hexane, 308 K) of 0.593, a solubility (mole fraction) (in n-hexane, 311 K) of 0.711 and a solubility (mole fraction) (in n-hexane, 312.5 K) of 0.777. It also gave a solubility (mole fraction) (in n-hexane, 314.2 K) of 0.858, a solubility (mole fraction) (in n-propanol, 287.1 K) of 0.13 and a solubility (mole fraction) (in n-propanol, 289.6 K) of 0.153. The solubility (mole fraction) (in n-propanol, 292.8 K) was 0.192, the solubility (mole fraction) (in n-propanol, 295.1 K) was 0.225 and the solubility (mole fraction) (in n-propanol, 297.9 K) was 0.275. For the same molecule, the solubility (mole fraction) (in n-propanol, 299.9 K) was 0.318, the solubility (mole fraction) (in n-propanol, 301.5 K) was 0.353 and the solubility (mole fraction) (in n-propanol, 303.5 K) was 0.406. It also gave a solubility (mole fraction) (in n-propanol, 304.7 K) of 0.44, a solubility (mole fraction) (in n-propanol, 306.5 K) of 0.509 and a solubility (mole fraction) (in n-propanol, 307.4 K) of 0.541. For the same molecule, the solubility (mole fraction) (in n-propanol, 308.7 K) was 0.597, the solubility (mole fraction) (in n-propanol, 309.9 K) was 0.644 and the solubility (mole fraction) (in n-propanol, 310.7 K) was 0.69. It also gave a solubility (mole fraction) (in n-propanol, 312.1 K) of 0.749, a solubility (mole fraction) (in n-propanol, 313.4 K) of 0.818 and a solubility (mole fraction) (in n-propanol, 314.2 K) of 0.873. It also gave a solubility (mole fraction) (in trichloroethylene, 282 K) of 0.144, a solubility (mole fraction) (in trichloroethylene, 283.1 K) of 0.157 and a solubility (mole fraction) (in trichloroethylene, 284.6 K) of 0.171. It also gave a solubility (mole fraction) (in trichloroethylene, 288.4 K) of 0.216, a solubility (mole fraction) (in trichloroethylene, 291 K) of 0.258 and a solubility (mole fraction) (in trichloroethylene, 293 K) of 0.295. For the same molecule, the solubility (mole fraction) (in trichloroethylene, 296 K) was 0.337, the solubility (mole fraction) (in trichloroethylene, 298.2 K) was 0.389 and the solubility (mole fraction) (in trichloroethylene, 301.2 K) was 0.441. It also gave a solubility (mole fraction) (in trichloroethylene, 303.3 K) of 0.516, a solubility (mole fraction) (in trichloroethylene, 306.7 K) of 0.591 and a solubility (mole fraction) (in trichloroethylene, 308.6 K) of 0.666. For the same molecule, the solubility (mole fraction) (in trichloroethylene, 310.5 K) was 0.725, the solubility (mole fraction) (in trichloroethylene, 312.5 K) was 0.806 and the solubility (mole fraction) (in trichloroethylene, 313.5 K) was 0.855.
